According to the supplement of paper PMC10307832:

Tests used:
Experiment in all cases: relative viability (nuclei count vs DMSO), 5 days (fraction); higher = more cells survive
[1] = tested on: 201T
In short: (§1)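 Relative viability equals treated-well nuclei counts divided by vehicle-well nuclei counts. Counts came from 4× images of lung cancer cell lines grown in 1536-well plates for 5 days after pin-tool dosing on the day after seeding. Dosing used one drug alone or a fixed anchor-drug dose plus five library-drug doses (not always all listed) in √10 steps, and values are medians of duplicate plates.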

[2] = tested on: BEN
In short: as §1

[3] = tested on: CAL-12T
In short: as §1

[4] = tested on: COR-L 105
In short: as §1

[5] = tested on: H3255
In short: as §1

[6] = tested on: HARA
In short: as §1

[7] = tested on: HCC-15
In short: as §1

[8] = tested on: HCC-827
In short: as §1

[9] = tested on: LC-2-ad
In short: as §1

[10] = tested on: LCLC-103H
In short: as §1

[11] = tested on: LK-2
In short: as §1

[12] = tested on: LU99A
In short: as §1

[13] = tested on: LXF-289
In short: as §1

[14] = tested on: NCI-H1437
In short: as §1

[15] = tested on: NCI-H1651
In short: as §1

[16] = tested on: NCI-H1792
In short: as §1

[17] = tested on: NCI-H2085
In short: as §1

[18] = tested on: NCI-H2228
In short: as §1

[19] = tested on: NCI-H23
In short: as §1

[20] = tested on: NCI-H2405
In short: as §1

[21] = tested on: NCI-H322M
In short: as §1

[22] = tested on: RERF-LC-KJ
In short: as §1

[23] = tested on: UMC-11
In short: as §1

In the case of `O=C(O)CCCCC(CCSCc1ccccc1)SCc1ccccc1` (stereo not given) [CPI-613] + Nc1nc2[nH]cc(CCc3ccc(C(=O)N[C@@H](CCC(=O)O)C(=O)O)cc3)c2c(=O)[nH]1 [Pemetrexed] (partner 0.2 µM), the relative viability ([1]; first compound 5 µM) is reported as 0.268, the relative viability ([1]; first compound 15.81 µM) is reported as 0.341 and the relative viability ([1]; first compound 50 µM) is reported as 0.327. For the same compound, the relative viability ([1]; first compound 158.11 µM) was 0.24, the relative viability ([1]; first compound 500 µM) was 0.179 and the relative viability ([2]; first compound 5 µM) was 0.809. The relative viability ([2]; first compound 15.81 µM) was 0.571, the relative viability ([2]; first compound 50 µM) was 0.763 and the relative viability ([2]; first compound 158.11 µM) was 0.76. It also gave a relative viability ([2]; first compound 500 µM) of 0.703, a relative viability ([3]; first compound 5 µM) of 1.02 and a relative viability ([3]; first compound 15.81 µM) of 1.03. It also gave a relative viability ([3]; first compound 50 µM) of 1.02, a relative viability ([3]; first compound 158.11 µM) of 0.0985 and a relative viability ([3]; first compound 500 µM) of 0.0501. The relative viability ([4]; first compound 5 µM) was 1.01, the relative viability ([4]; first compound 15.81 µM) was 1.02 and the relative viability ([4]; first compound 50 µM) was 1.15. For the same compound, the relative viability ([4]; first compound 158.11 µM) was 0.392, the relative viability ([4]; first compound 500 µM) was 0.229 and the relative viability ([5]; first compound 5 µM) was 0.543. The relative viability ([5]; first compound 15.81 µM) was 0.54, the relative viability ([5]; first compound 50 µM) was 0.543 and the relative viability ([5]; first compound 158.11 µM) was 0.534. For the same compound, the relative viability ([5]; first compound 500 µM) was 0.523, the relative viability ([6]; first compound 5 µM) was 0.26 and the relative viability ([6]; first compound 15.81 µM) was 0.229. It also gave a relative viability ([6]; first compound 50 µM) of 0.236, a relative viability ([6]; first compound 158.11 µM) of 0.269 and a relative viability ([6]; first compound 500 µM) of 0.0403. It also gave a relative viability ([7]; first compound 5 µM) of 0.231, a relative viability ([7]; first compound 15.81 µM) of 0.227 and a relative viability ([7]; first compound 50 µM) of 0.221. The relative viability ([7]; first compound 158.11 µM) was 0.155, the relative viability ([7]; first compound 500 µM) was 0.0248 and the relative viability ([8]; first compound 5 µM) was 0.251. For the same compound, the relative viability ([8]; first compound 15.81 µM) was 0.268, the relative viability ([8]; first compound 50 µM) was 0.276 and the relative viability ([8]; first compound 158.11 µM) was 0.267. The relative viability ([8]; first compound 500 µM) was 0.273, the relative viability ([9]; first compound 5 µM) was 0.256 and the relative viability ([9]; first compound 15.81 µM) was 0.275. It also gave a relative viability ([9]; first compound 50 µM) of 0.254, a relative viability ([9]; first compound 158.11 µM) of 0.116 and a relative viability ([9]; first compound 500 µM) of 0.0144. For the same compound, the relative viability ([10]; first compound 5 µM) was 0.514, the relative viability ([10]; first compound 15.81 µM) was 0.462 and the relative viability ([10]; first compound 50 µM) was 0.414. It also gave a relative viability ([10]; first compound 158.11 µM) of 0.452, a relative viability ([10]; first compound 500 µM) of 0.272 and a relative viability ([11]; first compound 5 µM) of 0.337. It also gave a relative viability ([11]; first compound 15.81 µM) of 0.225, a relative viability ([11]; first compound 50 µM) of 0.324 and a relative viability ([11]; first compound 158.11 µM) of 0.265. For the same compound, the relative viability ([11]; first compound 500 µM) was 0.241, the relative viability ([12]; first compound 5 µM) was 0.179 and the relative viability ([12]; first compound 15.81 µM) was 0.199. The relative viability ([12]; first compound 50 µM) was 0.179, the relative viability ([12]; first compound 158.11 µM) was 0.186 and the relative viability ([12]; first compound 500 µM) was 0.183. The relative viability ([13]; first compound 5 µM) was 0.903, the relative viability ([13]; first compound 15.81 µM) was 0.828 and the relative viability ([13]; first compound 50 µM) was 0.851. It also gave a relative viability ([13]; first compound 158.11 µM) of 0.757, a relative viability ([13]; first compound 500 µM) of 0.568 and a relative viability ([14]; first compound 5 µM) of 0.328. For the same compound, the relative viability ([14]; first compound 15.81 µM) was 0.295, the relative viability ([14]; first compound 50 µM) was 0.301 and the relative viability ([14]; first compound 158.11 µM) was 0.0937. The relative viability ([14]; first compound 500 µM) was 0.0871, the relative viability ([15]; first compound 5 µM) was 0.591 and the relative viability ([15]; first compound 15.81 µM) was 0.588. For the same compound, the relative viability ([15]; first compound 50 µM) was 0.579, the relative viability ([15]; first compound 158.11 µM) was 0.519 and the relative viability ([15]; first compound 500 µM) was 0.579. For the same compound, the relative viability ([16]; first compound 5 µM) was 0.744, the relative viability ([16]; first compound 15.81 µM) was 0.63 and the relative viability ([16]; first compound 50 µM) was 0.636. For the same compound, the relative viability ([16]; first compound 158.11 µM) was 0.109, the relative viability ([16]; first compound 500 µM) was 0.0742 and the relative viability ([17]; first compound 5 µM) was 0.827. For the same compound, the relative viability ([17]; first compound 15.81 µM) was 0.672, the relative viability ([17]; first compound 50 µM) was 0.82 and the relative viability ([17]; first compound 158.11 µM) was 0.492. The relative viability ([17]; first compound 500 µM) was 0.18, the relative viability ([18]; first compound 5 µM) was 0.362 and the relative viability ([18]; first compound 15.81 µM) was 0.33. The relative viability ([18]; first compound 50 µM) was 0.324, the relative viability ([18]; first compound 158.11 µM) was 0.272 and the relative viability ([18]; first compound 500 µM) was 0.059. For the same compound, the relative viability ([19]; first compound 5 µM) was 0.673, the relative viability ([19]; first compound 15.81 µM) was 0.621 and the relative viability ([19]; first compound 50 µM) was 0.544. For the same compound, the relative viability ([19]; first compound 158.11 µM) was 0.19, the relative viability ([19]; first compound 500 µM) was 0.0031 and the relative viability ([20]; first compound 5 µM) was 1.04. For the same compound, the relative viability ([20]; first compound 15.81 µM) was 0.922, the relative viability ([20]; first compound 50 µM) was 0.968 and the relative viability ([20]; first compound 158.11 µM) was 0.63. For the same compound, the relative viability ([20]; first compound 500 µM) was 0.336, the relative viability ([21]; first compound 5 µM) was 0.617 and the relative viability ([21]; first compound 15.81 µM) was 0.58. The relative viability ([21]; first compound 50 µM) was 0.616, the relative viability ([21]; first compound 158.11 µM) was 0.637 and the relative viability ([21]; first compound 500 µM) was 0.441. For the same compound, the relative viability ([22]; first compound 5 µM) was 0.476, the relative viability ([22]; first compound 15.81 µM) was 0.47 and the relative viability ([22]; first compound 50 µM) was 0.461. For the same compound, the relative viability ([22]; first compound 158.11 µM) was 0.341, the relative viability ([22]; first compound 500 µM) was 0.312 and the relative viability ([23]; first compound 5 µM) was 0.703. For the same compound, the relative viability ([23]; first compound 15.81 µM) was 0.8, the relative viability ([23]; first compound 50 µM) was 0.758 and the relative viability ([23]; first compound 158.11 µM) was 0.36. For the same compound, the relative viability ([23]; first compound 500 µM) was 0.115.
